# In PubChem BioAssay (NCI):
#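 Here, GI50 denotes the concentration required for 50% inhibition of growth. Definition used: TGI = concentration required for complete inhibition of growth.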
# Tests used:
# Experiment in all cases: NCI tumour cell line growth inhibition, 384-well format
# [1] = test system: LOX IMVI melanoma
# [2] = test system: CAKI-1 renal
# [3] = test system: 786-0 renal
# [4] = test system: RPMI-8226 leukemia
# [5] = test system: U251 glioblastoma
# [6] = test system: PC-3 prostate
# [7] = test system: OVCAR-3 ovarian
# [8] = test system: SNB-75 CNS
# [9] = test system: BT-549 breast
# [10] = test system: MOLT-4 leukemia
# [11] = test system: RXF 393 renal
# [12] = test system: M14 melanoma
# [13] = test system: SK-OV-3 ovarian
# [14] = test system: MCF7 breast
# [15] = test system: A498 renal
# [16] = test system: SNB-19 CNS
# [17] = test system: UACC-257 melanoma
# [18] = test system: CCRF-CEM leukemia
# [19] = test system: NCI-H322M lung
# [20] = test system: NCI-H460 NSCLC
# [21] = test system: NCI-H226 lung
# [22] = test system: NCI-H23 lung
# [23] = test system: HCT-15 colon
# [24] = test system: SK-MEL-28 melanoma
# [25] = test system: HT29 colon
# [26] = test system: SF-295 CNS
# [27] = test system: KM12 colon
# [28] = test system: UACC-62 melanoma
# [29] = test system: SN12C renal
# [30] = test system: SK-MEL-2 melanoma
# [31] = test system: MALME-3M melanoma
# [32] = test system: IGROV1 ovarian
# [33] = test system: EKVX NSCLC
# [34] = test system: SF-539 CNS
# [35] = test system: HOP-62 NSCLC
# [36] = test system: HL-60(TB) leukemia
# [37] = test system: DU-145 prostate
# [38] = test system: HCT-116 colon
# [39] = test system: HOP-92 NSCLC
# [40] = test system: K-562 leukemia
# [41] = test system: TK-10 renal
# [42] = test system: OVCAR-8 ovarian
# [43] = test system: ACHN renal
# [44] = test system: NCI-H522 lung
# [45] = test system: COLO 205 colon
# [46] = test system: MDA-MB-468 breast
# [47] = test system: OVCAR-4 ovarian
# [48] = test system: MDA-MB-435 melanoma
# [49] = test system: NCI/ADR-RES ovarian
# [50] = test system: HCC-2998 colon
# [51] = test system: SF-268 CNS
# [52] = test system: HS 578T breast
# [53] = test system: A549 NSCLC
# [54] = test system: SK-MEL-5 melanoma
# [55] = test system: SW-620 colon
smiles,measurement,setting,value
COc1cc(OC)c(C(=O)C(CN(C)C)CN(C)C)cc1OC,GI50,[1],6.55 µM
same,TGI,[1],19.9 µM
same,GI50,[2],1.02 µM
same,TGI,[2],2.22 µM
same,GI50,[3],2.27 µM
same,TGI,[3],4.92 µM
same,GI50,[4],0.419 µM
same,TGI,[4],1.14 µM
same,GI50,[5],7.75 µM
same,TGI,[5],20 µM
same,GI50,[6],3 µM
same,TGI,[6],7.62 µM
same,GI50,[7],1.71 µM
same,TGI,[7],3.37 µM
same,GI50,[8],19.8 µM
same,TGI,[8],34.1 µM
same,GI50,[9],3.06 µM
same,TGI,[9],8.06 µM
same,GI50,[10],0.225 µM
same,TGI,[10],0.591 µM
same,GI50,[11],1.92 µM
same,TGI,[11],3.44 µM
same,GI50,[12],2.16 µM
same,TGI,[12],4.3 µM
same,GI50,[13],16.9 µM
same,TGI,[13],30.7 µM
same,GI50,[14],1.83 µM
same,TGI,[14],3.77 µM
same,GI50,[15],12.5 µM
same,TGI,[15],25.1 µM
same,GI50,[16],14.4 µM
same,TGI,[16],27.7 µM
same,GI50,[17],1.41 µM
same,TGI,[17],2.81 µM
same,GI50,[18],0.369 µM
same,TGI,[18],1.38 µM
same,GI50,[19],18.4 µM
same,TGI,[19],32.5 µM
same,GI50,[20],2.75 µM
same,TGI,[20],6.41 µM
same,GI50,[21],1.91 µM
same,TGI,[21],4.42 µM
same,GI50,[22],2.17 µM
same,TGI,[22],4.18 µM
same,GI50,[23],1.49 µM
same,TGI,[23],2.88 µM
same,GI50,[24],3.32 µM
same,TGI,[24],7.76 µM
same,GI50,[25],3.42 µM
same,TGI,[25],12.9 µM
same,GI50,[26],19.2 µM
same,TGI,[26],39.3 µM
same,GI50,[27],3.64 µM
same,TGI,[27],9.17 µM
same,GI50,[28],2.06 µM
same,TGI,[28],4.4 µM
same,GI50,[29],1.81 µM
same,TGI,[29],3.58 µM
same,GI50,[30],1.7 µM
same,TGI,[30],3.67 µM
same,GI50,[31],0.999 µM
same,TGI,[31],2.17 µM
same,GI50,[32],2.06 µM
same,TGI,[32],4.43 µM
same,GI50,[33],10.4 µM
same,TGI,[33],22.3 µM
same,GI50,[34],1.6 µM
same,TGI,[34],3.06 µM
same,GI50,[35],22 µM
same,TGI,[35],36.6 µM
same,GI50,[36],0.146 µM
same,TGI,[36],0.279 µM
same,GI50,[37],4.56 µM
same,TGI,[37],15 µM
same,GI50,[38],1.41 µM
same,TGI,[38],2.82 µM
same,GI50,[39],2.12 µM
same,TGI,[39],3.66 µM
same,GI50,[40],6 µM
same,TGI,[40],18.1 µM
same,GI50,[41],1.54 µM
same,TGI,[41],3.04 µM
same,GI50,[42],1.44 µM
same,TGI,[42],2.84 µM
same,GI50,[43],1.41 µM
same,TGI,[43],2.74 µM
same,GI50,[44],0.382 µM
same,TGI,[44],1.57 µM
same,GI50,[45],0.696 µM
same,TGI,[45],1.96 µM
same,GI50,[46],0.317 µM
same,TGI,[46],0.697 µM
same,GI50,[47],1.81 µM
same,TGI,[47],3.21 µM
same,GI50,[48],3.27 µM
same,TGI,[48],8.94 µM
same,GI50,[49],2.12 µM
same,TGI,[49],4.11 µM
same,GI50,[50],4.8 µM
same,TGI,[50],18.6 µM
same,GI50,[51],17.2 µM
same,TGI,[51],31.1 µM
same,GI50,[52],7.53 µM
same,TGI,[52],19.8 µM
same,GI50,[53],14.1 µM
same,TGI,[53],27.6 µM
same,GI50,[54],5.64 µM
same,TGI,[54],18.4 µM
same,GI50,[55],1.14 µM
same,TGI,[55],2.44 µM
